The values that follow come from PMC3516535, “Rhesus Macaque Theta Defensins Suppress Inflammatory Cytokines and Enhance Survival in Mouse Models of Bacteremic Sepsis” (PLoS ONE, 2012).

Assay [1] concerns human EDTA-anti-coagulated blood diluted 1∶10. Briefly: TNF release assay in stimulated diluted whole blood (ELISA). Type of assay: cell-based. To be noted: 4 h; for anti-TNF effectiveness relative to RTD-1 / hierarchy of anti-TNF potencies: E. coli-stimulated blood, N = 2. Background: ELISA stands for enzyme-linked immunosorbent assay.
The next assay relates to THP-1 monocytic cells. Briefly: TNF release assay in LPS-stimulated THP-1 monocytes (ELISA). Type of assay: cell-based, human. To be noted: 4 h, N = 2; for hierarchy of anti-TNF potencies: THP-1 in RPMI +5% human EDTA-plasma, 1 ng/ml K12 LPS. Here is the method:
THP-1 monocytic cells (ATCC, Manassas, VA) were grown and maintained in RPMI-1640 medium containing 10% fetal bovine serum and penicillin/streptomycin. Cells were harvested by centrifugation, washed with RPMI-1640 medium and suspended at 5×10^5 cells/ml in fresh medium containing 5% human EDTA plasma.
Peptides (RTDs 1–5, human neutrophil α-defensins) were aliquoted into wells of pyrogen-free 12- or 24-well plates wherein final peptide concentrations were 0–10 µg/ml. Wells were inoculated with 1×10^5 CFU/ml S. aureus or 100 CFU/ml E. coli, or 1–3 ng/ml of E. coli K12 LPS. Samples (5–10 µl) containing peptide or bacteria/LPS were placed on opposite sides of the plate well. Mixing commenced with the addition of 0.5 to 2.0 ml of 1∶10 diluted blood, PBLs (5×10^5/ml), or THP-1 cells (2–5×10^5 cells/ml). Plates were incubated at 37°C in 5% CO2 for 4 h with gentle mixing. […] Incubation mixtures were centrifuged at 200× g for 10 min at 22°C and supernatants were clarified by centrifugation at 23,000× g for 15 min at 4°C. Supernatant TNF was quantified by sandwich ELISA (OptEIA II; BD Biosciences; Hu TNF-α, Invitrogen) per suppliers’ directions, using a SpectraMax Plate Reader.

For a further assay, the system named is lethal bacteremia. To be noted: single systemic administration at time of bacterial challenge; cited from earlier work. From the text: The macrocyclic structure of θ-defensins confers remarkable stability. […] RTD-1 was also well-tolerated when administered intravenously or subcutaneously to mice, rats, and chimpanzees. Following repeated injections, neither of two chimpanzees produced anti-RTD-1 antibody. […] The discovery of antimicrobial peptides and their proven roles in host defense has prompted studies to evaluate dive ...

The next assay deals with CLP sepsis. On the set-up: method as in PMID 12545019. To be noted: multiple doses; cited from earlier work.

Bridge positions count the residues as written; N and C are the ends. Ends that are not written are not given here. Peptide text beside a SMILES is read from it.

On to `CC[C@H](C)[C@@H]1NC(=O)CNC(=O)[C@H](CC(C)C)NC(=O)[C@H](C(C)C)NC(=O)[C@@H]2CSSC[C@H](NC1=O)C(=O)N[C@@H](CCCNC(=N)N)C(=O)N[C@H]1CSSC[C@H](NC(=O)[C@H](CCCNC(=N)N)NC(=O)[C@@H]3CSSC[C@H](NC(=O)[C@H]([C@@H](C)CC)NC1=O)C(=O)N[C@@H]([C@@H](C)O)C(=O)N[C@@H](CCCNC(=N)N)C(=O)NCC(=O)N[C@@H](Cc1ccccc1)C(=O)N3)C(=O)N[C@@H]([C@@H](C)CC)C(=O)N2` [RTD-4] (cyclo(CICTRGFCRCICVLGICR); disulfide 1-10, 3-8, 12-17), for which, in assay [1], the “anti-TNF effectiveness relative to RTD-1” value is given as “less active” and the “hierarchy of anti-TNF potencies” value is recorded as “RTD-5>2>1>4>3”. Also, the “hierarchy of anti-TNF potencies” value with THP-1 monocytic cells was “RTD-5>2>1>4>3”.

Regarding `CC[C@H](C)[C@@H]1NC(=O)CNC(=O)[C@H](CC(C)C)NC(=O)[C@H](C(C)C)NC(=O)[C@@H]2CSSC[C@H](NC1=O)C(=O)N[C@@H](CCCNC(=N)N)C(=O)N[C@H]1CSSC[C@H](NC(=O)[C@H](CCCNC(=N)N)NC(=O)[C@@H]3CSSC[C@H](NC(=O)[C@H]([C@@H](C)CC)NC1=O)C(=O)N[C@@H](CCCNC(=N)N)C(=O)N[C@@H](CCCNC(=N)N)C(=O)NCC(=O)N[C@@H](C(C)C)C(=O)N3)C(=O)N[C@@H]([C@@H](C)CC)C(=O)N2` [RTD-5] (cyclo(CICRRGVCRCICVLGICR); disulfide 1-10, 3-8, 12-17), in assay [1], the “anti-TNF effectiveness relative to RTD-1” value is reported as “substantially more effective than RTD-1” and the “hierarchy of anti-TNF potencies” value is listed as “RTD-5>2>1>4>3”. In addition, the “hierarchy of anti-TNF potencies” value with THP-1 monocytic cells is listed as “RTD-5>2>1>4>3”.

With “indolicidin: antimicrobial peptide from ungulates (ILPWKWPWWPWRR; ends and bridges not checked; UniProt P33046 131-143, looked up)”, in the assay with lethal bacteremia, the “protection against lethal bacteremia” value is given as “Protection”.

“LL-37: antimicrobial peptide derived from human cells (LLGDFFRKSKEKIGKEFKRIVQRIKDFLRNLVPRTES; Antibacterial peptide LL-37; UniProt P49913 134-170, looked up)”: the “protection against lethal bacteremia” value with lethal bacteremia is given as “Protection”.

For the molecule `CC(C)C[C@@H]1NC(=O)[C@@H]2CSSC[C@H](NC(=O)[C@H](CCCNC(=N)N)NC(=O)[C@@H]3CSSC[C@H](NC1=O)C(=O)N[C@@H](CCCNC(=N)N)C(=O)N[C@@H](CCCNC(=N)N)C(=O)NCC(=O)N[C@@H](C(C)C)C(=O)N3)C(=O)N[C@@H](CC(C)C)C(=O)N[C@H]1CSSC[C@H](NC(=O)[C@H](C(C)C)NC(=O)CNC(=O)[C@H](CCCNC(=N)N)NC(=O)[C@H](CCCNC(=N)N)NC1=O)C(=O)N[C@@H](CCCNC(=N)N)C(=O)N2` [RTD-2] (cyclo(CLCRRGVCRCLCRRGVCR); disulfide 1-10, 3-8, 12-17), in assay [1], the “anti-TNF effectiveness relative to RTD-1” value is “substantially more effective than RTD-1” and the “hierarchy of anti-TNF potencies” value is “RTD-5>2>1>4>3”. For the same molecule, the “hierarchy of anti-TNF potencies” value with THP-1 monocytic cells is given as “RTD-5>2>1>4>3”.

In the case of “HNP-2: human neutrophil α-defensin purified from human neutrophils (CYCRIPACIAGERRYGTCIYQGRLWAFCC; ends and bridges not checked; cysteine pairing not given here; UniProt P59665 66-94, looked up) [reference compound]”, the “effect on stimulated TNF release” value in assay [1] (E. coli-stimulated, 0–10 µg/ml peptide) is “no inhibitory effect”; in the assay with THP-1 monocytic cells (THP-1, 1 ng/ml K12 LPS) it was “no inhibitory effect”.

For “PG-1: porcine protegrin (RGGRLCYCRRRFCVCVGR; ends and bridges not checked; cysteine pairing not given here; UniProt P32194 131-148, looked up)”, in the assay on CLP sepsis, the endotoxin-neutralizing effect result is on record as “little endotoxin-neutralizing effect” and the “therapeutic effect compared to vehicle control” value is recorded as “no therapeutic effect”.

Regarding `CC[C@H](C)[C@@H]1NC(=O)[C@@H]2CSSC[C@H](NC(=O)[C@H](CCCNC(=N)N)NC(=O)[C@@H]3CSSC[C@H](NC1=O)C(=O)N[C@@H]([C@@H](C)O)C(=O)N[C@@H](CCCNC(=N)N)C(=O)NCC(=O)N[C@@H](Cc1ccccc1)C(=O)N3)C(=O)N[C@@H]([C@@H](C)CC)C(=O)N[C@H]1CSSC[C@H](NC(=O)[C@H](Cc3ccccc3)NC(=O)CNC(=O)[C@H](CCCNC(=N)N)NC(=O)[C@H]([C@@H](C)O)NC1=O)C(=O)N[C@@H](CCCNC(=N)N)C(=O)N2` [RTD-3] (cyclo(CICTRGFCRCICTRGFCR); disulfide 1-10, 3-8, 12-17), the “anti-TNF effectiveness relative to RTD-1” value in assay [1] was “less active”. In addition, the “hierarchy of anti-TNF potencies” value (in assay [1]; in the assay on THP-1 monocytic cells) was “RTD-5>2>1>4>3” throughout.
